# Reference: article PMC3224213, “Bacterial membrane activity of α-peptide/β-peptoid chimeras: Influence of amino acid composition and chain length on the activity against different bacterial strains” (BMC Microbiology, 2011)
# Columns and labels:
# S. aureus [1] = experiment: ATP leakage bioluminescence assay; type: cell-based, Staphylococcus aureus; conditions: for intracellular ATP concentration: HEPES buffer pH 7.0, two independent experiments; for dose for the immediate maximum ATP release: 500 μg/mL expressed in μM; for minimum chimera dose for the maximum immediate ATP release: doses 100, 250, 500, 1000 μg/mL, immediate release only, data not shown
# Procedure: (§1) Pore formation as caused by peptide addition was determined by measuring ATP leakage from the bacterial cell using a bioluminescence assay. The assay was used to estimate differences between sub-typical chimeras 1, 2 and 3 on S. aureus and S. marcescens and to evaluate the effect of chain length of mixed type chimeras 4a, 4b and 4c on S. aureus. In brief, bacteria were grown in TSB at 37°C for 24 hours and then re-inoculated in TSB at 37°C for 6-8 hours until an absorbance at 546 nm of 2.5 for S. aureus and 2.0 for S. marcescens and then harvested (10 min at 2,000 × g). The bacteria were grown to a high absorbance since a high concentration of bacteria was necessary in order to get a measurable response in the ATP leakage assay. Cells were washed once in 50 mM potassium phosphate buffer (pH 7.0) and once in 50 mM HEPES buffer (pH 7.0), before the pellet was resuspended in HEPES buffer to an OD546 ~ 10, and then stored on ice. Before chimera addition bacteria were pre-incubated with 0.2% (w/v) glucose to energize the cells. In general a chimera dose of 1000 μg/mL (corresponding to 280-552 μM for all chimeras) was used for all assays; however, for determining dose response curves additional doses of 100 (28-55 μM), 250 (71-137 μM) and 500 (140-276 μM) μg/mL were tested, and only the immediate release was noted. Total ATP and extracellular ATP were determined with a luminometer […]. Intracellular volumes of S. aureus and S. marcescens (0.85 μm^3 and 1.7 μm^3, respectively) were subtracted from the total volume before calculating the extracellular ATP concentration; the intracellular ATP concentration could then be calculated from this and the total ATP. ATP leakage kinetics was determined on a bacterial suspension prepared as above. Samples were taken at time 0, 5, 10, 20, 30 and 60 minutes and viable counts determined. Both the ATP leakage assay and killing kinetics performed under the same assay conditions were performed in two independent experiments.
# S. marcescens [2] = experiment: ATP leakage bioluminescence assay; type: cell-based, Serratia marcescens; conditions: 1000 μg/mL chimera
# Procedure: as §1
# S. aureus [3] = experiment: Killing by chimera with or without EDTA pre-treatment; type: cell-based, Staphylococcus aureus
# From the text: (§2) Although there was no systematic difference in the MIC values between Gram-positive and -negative bacteria, we speculated that the Gram-negative outer membrane could act as a barrier to the penetration of AMPs, since polymyxin B resistance in S. marcescens has been linked to induced changes in the amount and composition of lipopolysaccharide (LPS) in the outer membrane. Moreover, similar resistance-conferring membrane alterations have also been seen for other bacteria in response to polymyxin B treatment. Accordingly, we studied how a membrane-destabilizing pre-treatment of S. marcescens, E. coli and S. aureus with the divalent metal cation-chelating agent EDTA would affect the killing caused by chimera 1. In these experiments we used a non-lethal 0.5 mM concentration of EDTA together with the non-lethal 1.5 μM concentration of the tested AMP analogue. […] In contrast, cell numbers of both S. marcescens and E. coli were reduced with 4-5 log from an initial value of log ~5.5 within the first 4 hours (not shown) upon treatment with a sub-lethal EDTA concentration together with the chimera.
# E. coli = experiment: as above; type: cell-based, Escherichia coli
# From the text: as §2
# S. marcescens [4] = experiment: as above; type: cell-based, Serratia marcescens
# From the text: as §2
# [5] = test system: Serratia marcescens ATCC 8100; experiment: Killing kinetics (time-kill); type: cell-based; conditions: S. marcescens
# Procedure: (§3) In vitro time-kill curves for chimera 1, 2 and 3 were determined against S. aureus 8325 (MIC μM: chimera 1 5.9; chimera 2 2.8; chimera 3 18.7) and Serratia marcescens ATCC 8100 (MIC μM: chimera 1 46.8; chimera 2 45.5; chimera 3 150.0). These two bacterial strains represent organisms susceptible and tolerant to the chimeras, respectively. The bactericidal effect of the three chimeras was tested at MIC in two independent experiments; additionally the effect of chimera 2 was tested at ¼ and 1/2 times MIC. In brief, a suspension prepared from fresh overnight colonies as described above was transferred to 2 mL PBS or cation-adjusted MHB with chimera added (from a 10 × MIC solution) to give a similar bacterial cell density as employed in the MIC determination; the resulting suspension was then incubated at 37°C, 300 rpm. Samples for colony determination were taken at 0, 1, 2, 4, 6 and 8 hours after addition and transferred to a ten-fold dilution row. Colony counts were determined after incubation for 24 hours at 37°C.
# S. aureus 8325 = experiment: Killing kinetics (time-kill); type: cell-based, Staphylococcus aureus
# Procedure: as §3
# [6] = test system: twelve food-borne and clinical bacterial strains; type: cell-based
# Procedure: Initial activity experiments were carried out with twelve strains from seven bacterial species representing common laboratory strains and clinical strains derived from both food-borne and nosocomial infections (Table 1). Stock cultures were stored at -80°C in 4% (w/v) glycerol, 0.5% (w/v) glucose, 2% (w/v) skimmed milk powder and 3% (w/v) tryptone soy powder. All experiments were carried out with bacteria incubated for one night (i.e. approximately 18 hours) at 37°C. Experiments were performed in cation-adjusted Mueller Hinton II broth (MHB) (Becton Dickinson 212322) adjusted to pH 7.4 or Tryptone Soy Broth (TSB) (Oxoid CM0129) for the ATP leakage assays. Brain Heart Infusion (BHI) (CM1135) with agar (VWR 20768.292) 1.5% as gelling agent was used throughout for colony plating.
# The Minimum Inhibitory Concentration (MIC) of the chimeras was determined against the spectrum of bacteria using the microdilution method according to guidelines of the Clinical and Laboratory Standards Institute (CLSI). Chimera 1:2 serial dilutions were prepared from 1,024 μg/mL stock solutions to give a final range of 512-0.5 μg/mL in the wells. This corresponds to a final range of 144 to 0.14 μM for the heaviest chimera (i.e. chimera 4c) and of 282 to 0.27 μM for the lightest chimera (i.e. chimera 4a). Colonies grown overnight (i.e. approximately 18 hours) on BHI agar were suspended in 0.9% saline to give a turbidity of 0.13 at OD546 (approximately 1 × 10^8 CFU/mL), and then diluted in MHB pH 7.4 to a final concentration of 5 × 10^5 CFU/mL in each well. Following CLSI guidelines the media for testing of Listeria monocytogenes strains were supplemented with 2.5% lysed horse blood. Polypropylene plates (Nunc 442587) were used to minimize peptide binding and incubation time was 18-20 hours at 37°C. MIC was determined in a minimum of two technical replicates as the lowest concentration of the peptide analogue where no visible growth was found. The Minimum Bactericidal Concentration (MBC) was determined by plating 10 μL of the suspension from the first three wells without growth on BHI agar and incubating these for 24 hours at 37°C. MBC was the lowest concentration at which a 99.9% reduction in CFU/mL was observed. Activity is expressed in μmol/L to enable a direct comparison of analogues with different length (= size).
# S. aureus [7] = experiment: Time-kill under the conditions of the ATP leakage assay; type: cell-based, Staphylococcus aureus; conditions: 1000 μg/mL chimera, same conditions as ATP assay, within the first 20 minutes, initial log ~9.5 per mL
# Procedure: as §1
# [8] = 1.5 μM chimera alone, data not shown
# [9] = 0.5 mM EDTA and 1.5 μM chimera, within the first 4 hours, initial log ~5.5, not shown
# [10] = range over strains, summary of Table 2
SMILES,ATP leakage (in words) (S. aureus [1]; 1000 μg/mL chimera),intracellular ATP concentration (S. aureus [1]; 1000 μg/mL chimera),ATP leakage (in words) (S. marcescens [2]),dose for the immediate maximum ATP release (S. aureus [1]),immediate ATP release (S. aureus [1]; 1000 μg/mL chimera),minimum chimera dose for the maximum immediate ATP release (S. aureus [1]),reduction in number of viable cells (S. aureus [7]),also measured
CC(=O)N[C@@H](CCCCNC(=N)N)C(=O)N(CCC(=O)N[C@@H](CCCCNC(=N)N)C(=O)N(CCC(=O)N[C@@H](CCCCNC(=N)N)C(=O)N(CCC(=O)N[C@@H](CCCCNC(=N)N)C(=O)N(CCC(=O)N[C@@H](CCCCNC(=N)N)C(=O)N(CCC(=O)N[C@@H](CCCCNC(=N)N)C(=O)N(CCC(N)=O)Cc1ccccc1)Cc1ccccc1)Cc1ccccc1)Cc1ccccc1)Cc1ccccc1)Cc1ccccc1 [Chimera 1],caused leakage of ATP,rapidly approached zero,caused leakage of ATP,–,–,–,–,"extracellular ATP concentration (S. aureus [1]; 1000 μg/mL chimera, during the first minutes, HEPES buffer pH 7.0, OD546 ~ 10, two independent experiments): ~ 20 μM; intracellular ATP concentration (S. marcescens [2]; HEPES buffer pH 7.0, two independent experiments): rapidly approached zero; extracellular ATP concentration (S. marcescens [2]; during the first minutes, HEPES buffer pH 7.0, OD546 ~ 10, two independent experiments): ~ 5 μM; reduction in the number of viable cells, chimera alone (S. aureus [3]; [8]): 0.5 log; viable cells, EDTA then chimera versus chimera only (S. aureus [3]; 0.5 mM EDTA and 1.5 μM chimera): No discernable difference; reduction in the number of viable cells, chimera alone (E. coli; [8]): 1.5 log; reduction of cell numbers, EDTA together with chimera (E. coli; [9]): 4-5 log; reduction in the number of viable cells, chimera alone (S. marcescens [4]; [8]): 1.5 log; reduction of cell numbers, EDTA together with chimera (S. marcescens [4]; [9]): 4-5 log"
CC(=O)N[C@@H](CCCCNC(=N)N)C(=O)N(CCC(=O)N[C@@H](CCCCNC(=N)N)C(=O)N(CCC(=O)N[C@@H](CCCCNC(=N)N)C(=O)N(CCC(=O)N[C@@H](CCCCNC(=N)N)C(=O)N(CCC(=O)N[C@@H](CCCCNC(=N)N)C(=O)N(CCC(=O)N[C@@H](CCCCNC(=N)N)C(=O)N(CCC(N)=O)[C@@H](C)c1ccccc1)[C@@H](C)c1ccccc1)[C@@H](C)c1ccccc1)[C@@H](C)c1ccccc1)[C@@H](C)c1ccccc1)[C@@H](C)c1ccccc1 [Chimera 2],caused leakage of ATP,–,caused leakage of ATP,–,–,–,–,"decrease in the number of viable bacteria ([5]; at MIC in MHB, within the first hour, 37°C, two independent experiments): 2 log; viable cells after treatment in PBS ([5]; at MIC in PBS, 37°C): no viable cells remained after the first hour; effect on cell number at ¼ MIC ([5]; ¼ MIC in MHB): reduction in cell number; number of viable cells at MIC in MHB (S. aureus 8325; at MIC in MHB, 37°C, two independent experiments): did not decrease until after 6 hours; decrease in viable cell numbers (S. aureus 8325; at MIC in PBS, after 4 hours): 2 log"
CC(=O)N[C@@H](CCCCN)C(=O)N(CCC(=O)N[C@@H](CCCCNC(=N)N)C(=O)N(CCC(=O)N[C@@H](CCCCN)C(=O)N(CCC(=O)N[C@@H](CCCCNC(=N)N)C(=O)N(CCC(N)=O)[C@@H](C)c1ccccc1)[C@@H](C)c1ccccc1)[C@@H](C)c1ccccc1)[C@@H](C)c1ccccc1 [Chimera 4a],–,approx. 5 μM,–,276 µM,approximately 15 μM,500 µg/mL,no killing was observed,"MIC values times higher than those of chimera 4c ([6]; ratio of MIC to that of chimera 4c, over the strains of Table 2): 15-70 times"
CC(=O)N[C@@H](CCCCN)C(=O)N(CCC(=O)N[C@@H](CCCCNC(=N)N)C(=O)N(CCC(=O)N[C@@H](CCCCN)C(=O)N(CCC(=O)N[C@@H](CCCCNC(=N)N)C(=O)N(CCC(=O)N[C@@H](CCCCN)C(=O)N(CCC(=O)N[C@@H](CCCCNC(=N)N)C(=O)N(CCC(N)=O)[C@@H](C)c1ccccc1)[C@@H](C)c1ccccc1)[C@@H](C)c1ccccc1)[C@@H](C)c1ccccc1)[C@@H](C)c1ccccc1)[C@@H](C)c1ccccc1 [Chimera 4b],same leakage pattern as induced by chimera 4a,–,–,–,–,–,no killing was observed,–
CC(=O)N[C@@H](CCCCN)C(=O)N(CCC(=O)N[C@@H](CCCCNC(=N)N)C(=O)N(CCC(=O)N[C@@H](CCCCN)C(=O)N(CCC(=O)N[C@@H](CCCCNC(=N)N)C(=O)N(CCC(=O)N[C@@H](CCCCN)C(=O)N(CCC(=O)N[C@@H](CCCCNC(=N)N)C(=O)N(CCC(=O)N[C@@H](CCCCN)C(=O)N(CCC(=O)N[C@@H](CCCCNC(=N)N)C(=O)N(CCC(N)=O)[C@@H](C)c1ccccc1)[C@@H](C)c1ccccc1)[C@@H](C)c1ccccc1)[C@@H](C)c1ccccc1)[C@@H](C)c1ccccc1)[C@@H](C)c1ccccc1)[C@@H](C)c1ccccc1)[C@@H](C)c1ccccc1 [Chimera 4c],–,immediately depleted of intracellular ATP,–,140 µM,approximately 15 μM,500 µg/mL,2 log,"MIC values against the clinical strains of E. coli, S. aureus and K. pneumoniae [6, 10]: 2.2 to 9.0 µM; MIC values against the food-borne pathogens L. monocytogenes and Vibro spp. [6, 10]: 1.1 to 2.2 µM"
